What was measured:
Type in all cases: cell-based
A431 (EGFR-WT) = assay: Cell proliferation study (CellTiter-Glo, 72 hrs), A431; settings: Homo sapiens, A-431, A431 cells, CTG, * = average of multiple measurements
Description: (§1) (I) Reagents and Materials
(§2) • Fetal bovine serum FBS (GBICO, Cat #10099-141); • CellTiter-Glo® luminescent cell viability assay kit (Promega, Cat #G7572); • Black transparent flat-bottom 96-well plate (Corning®, Cat #3603). (II) Instruments • SpectraMax multi-label microplate reader MD, 2104-0010A; • Carbon dioxide incubator, Thermo Scientific 3100 series; • Biological safety cabinet, Thermo Scientific, 1300 series model A2; • Inverted microscope, Olympus, CKX41SF; • Siemens refrigerator KK25E76T1. (III) Cell Lines and Culture Conditions
(§3) (IV) Experimental Procedures 1. Cell Culture and Inoculation: • (1) Cells in the logarithmic growth phase were harvested and counted using a […]. The cell viability was determined by the trypan blue dye exclusion method to ensure cell viability above 90%. • (2) The cell concentration was adjusted to reach a desired final density; 90 μL of cell suspension was added to a 96-well plate. • (3) The cells were incubated overnight in the 96-well plate at 37° C., 5% CO2 and with 95% humidity. 2. T0 Benchmark Data: • (1) 10 μL of PBS was added to each well of the TO plate containing the cells. • (2) The CTG reagent was thawed and the cell plate was equilibrated to room temperature for 30 min. • (3) An equal volume of CTG solution was added to each well. • (4) The cells were lysed by shaking on an orbital shaker for 5 min. • (5) The cell plate was left to stand at room temperature for 20 min to stabilize the fluorescence signal. • (6) The fluorescence signal values of TO were read. 3. Dilution and Addition of Compounds • (1) According to the compound information table, a corresponding volume of DMSO was added to the corresponding compound powder to prepare a 10 mM stock solution. • (2) A 1000-fold, 3.16-fold-diluted compound solution was prepared. • (3) The 1000× diluted compound solution was diluted 100-fold with PBS to prepare a 10-fold compound solution with a maximum concentration of 10 μM, including 9 concentrations, with 3.16-fold dilution, and 10 μL of the medicament solution was added to each well of the 96-well plate to seed the cells. Triplicate wells were set for each compound concentration, with a final concentration of DMSO being 0.1%. • (4) The cells were placed in the 96-well plate containing the medicament at 37° C., 5% CO2 and with 95% humidity, and cultured for 72 hrs before CTG analysis. 4. Fluorescence Signal Reading • (1) The CTG reagent was thawed and the cell plate was equilibrated to room temperature for 30 min. • (2) An equal volume of CTG solution was added to each well. • (3) The cells were lysed by shaking on an orbital shaker for 5 min. • (4) The cell plate was left to stand at room temperature for 20 min to stabilize the fluorescence signal. • (5) The fluorescence values were read. 5. Data Processing
(§4) Data were analyzed using GraphPad Prism 7.0 software and fitted data were regressed using non-linear S-curves to obtain dose-response curves from which IC50 values (in nM) were calculated.

[1] = molecular target: Ba/F3 EGFR-D770-N771ins_SVD (Homo sapiens, UniProt P00533, DUP768-770, cells depend on it); assay: Cell proliferation study (CellTiter-Glo, 72 hrs), Ba/F3 EGFR-D770-N771ins_SVD; settings: CTG, * = average of multiple measurements, read-out: Ba/F3 EGFR-D770-N771ins_SVD IC50
Summary of the method: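 Cells were seeded overnight, then exposed for 72 hrs at 37 °C, 5% CO2 to 9 concentrations in 3.16-fold steps, 0.1% DMSO final, triplicate wells. Viability was read by CellTiter-Glo luminescence, with a T0 plate read at dosing. IC50 came from nonlinear sigmoidal dose-response fits.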

[2] = molecular target: Ba/F3 EGFR-V769_D770insASV (Homo sapiens, UniProt P00533, DUP767-769, cells depend on it); assay: Cell proliferation study (CellTiter-Glo, 72 hrs), Ba/F3 EGFR-V769_D770insASV; settings: CTG, * = average of multiple measurements, read-out: Ba/F3 EGFR-V769_D770insASV IC50
Description: as §1, §2, §3, §4

Sequence of Ba/F3 EGFR-V769_D770insASV (P00533 with tags, fused parts or gaps DUP767-769): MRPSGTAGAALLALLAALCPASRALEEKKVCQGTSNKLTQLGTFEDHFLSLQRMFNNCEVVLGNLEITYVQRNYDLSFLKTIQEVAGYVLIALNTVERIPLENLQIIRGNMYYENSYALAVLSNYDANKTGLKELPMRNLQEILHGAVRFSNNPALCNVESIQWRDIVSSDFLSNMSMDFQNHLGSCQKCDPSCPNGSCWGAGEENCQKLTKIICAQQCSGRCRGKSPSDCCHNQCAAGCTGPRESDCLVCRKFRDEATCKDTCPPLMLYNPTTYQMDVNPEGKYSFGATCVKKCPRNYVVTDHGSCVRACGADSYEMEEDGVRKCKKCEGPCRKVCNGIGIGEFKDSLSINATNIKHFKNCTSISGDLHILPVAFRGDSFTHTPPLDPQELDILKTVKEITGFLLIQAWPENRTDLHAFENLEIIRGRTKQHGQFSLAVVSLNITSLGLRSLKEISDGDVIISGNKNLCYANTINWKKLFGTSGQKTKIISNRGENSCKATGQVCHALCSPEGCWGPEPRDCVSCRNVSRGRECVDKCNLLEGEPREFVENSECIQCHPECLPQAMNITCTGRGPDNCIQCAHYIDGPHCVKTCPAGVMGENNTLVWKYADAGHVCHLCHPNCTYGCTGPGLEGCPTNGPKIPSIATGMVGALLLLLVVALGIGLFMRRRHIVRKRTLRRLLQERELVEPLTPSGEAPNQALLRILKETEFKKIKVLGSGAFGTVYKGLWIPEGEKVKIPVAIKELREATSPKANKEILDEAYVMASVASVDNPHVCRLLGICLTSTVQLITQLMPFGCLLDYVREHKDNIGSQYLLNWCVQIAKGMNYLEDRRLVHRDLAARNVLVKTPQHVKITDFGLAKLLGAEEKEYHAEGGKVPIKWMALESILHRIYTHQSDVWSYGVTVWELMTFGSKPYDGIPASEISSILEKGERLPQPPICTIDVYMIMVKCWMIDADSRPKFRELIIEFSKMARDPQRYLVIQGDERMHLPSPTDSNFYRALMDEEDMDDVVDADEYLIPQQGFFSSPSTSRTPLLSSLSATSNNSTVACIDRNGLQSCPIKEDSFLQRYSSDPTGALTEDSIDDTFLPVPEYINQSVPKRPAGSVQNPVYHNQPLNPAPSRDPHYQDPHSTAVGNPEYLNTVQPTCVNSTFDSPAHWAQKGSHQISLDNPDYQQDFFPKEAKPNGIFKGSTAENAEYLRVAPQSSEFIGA
Sequence of Ba/F3 EGFR-D770-N771ins_SVD (P00533 with tags, fused parts or gaps DUP768-770): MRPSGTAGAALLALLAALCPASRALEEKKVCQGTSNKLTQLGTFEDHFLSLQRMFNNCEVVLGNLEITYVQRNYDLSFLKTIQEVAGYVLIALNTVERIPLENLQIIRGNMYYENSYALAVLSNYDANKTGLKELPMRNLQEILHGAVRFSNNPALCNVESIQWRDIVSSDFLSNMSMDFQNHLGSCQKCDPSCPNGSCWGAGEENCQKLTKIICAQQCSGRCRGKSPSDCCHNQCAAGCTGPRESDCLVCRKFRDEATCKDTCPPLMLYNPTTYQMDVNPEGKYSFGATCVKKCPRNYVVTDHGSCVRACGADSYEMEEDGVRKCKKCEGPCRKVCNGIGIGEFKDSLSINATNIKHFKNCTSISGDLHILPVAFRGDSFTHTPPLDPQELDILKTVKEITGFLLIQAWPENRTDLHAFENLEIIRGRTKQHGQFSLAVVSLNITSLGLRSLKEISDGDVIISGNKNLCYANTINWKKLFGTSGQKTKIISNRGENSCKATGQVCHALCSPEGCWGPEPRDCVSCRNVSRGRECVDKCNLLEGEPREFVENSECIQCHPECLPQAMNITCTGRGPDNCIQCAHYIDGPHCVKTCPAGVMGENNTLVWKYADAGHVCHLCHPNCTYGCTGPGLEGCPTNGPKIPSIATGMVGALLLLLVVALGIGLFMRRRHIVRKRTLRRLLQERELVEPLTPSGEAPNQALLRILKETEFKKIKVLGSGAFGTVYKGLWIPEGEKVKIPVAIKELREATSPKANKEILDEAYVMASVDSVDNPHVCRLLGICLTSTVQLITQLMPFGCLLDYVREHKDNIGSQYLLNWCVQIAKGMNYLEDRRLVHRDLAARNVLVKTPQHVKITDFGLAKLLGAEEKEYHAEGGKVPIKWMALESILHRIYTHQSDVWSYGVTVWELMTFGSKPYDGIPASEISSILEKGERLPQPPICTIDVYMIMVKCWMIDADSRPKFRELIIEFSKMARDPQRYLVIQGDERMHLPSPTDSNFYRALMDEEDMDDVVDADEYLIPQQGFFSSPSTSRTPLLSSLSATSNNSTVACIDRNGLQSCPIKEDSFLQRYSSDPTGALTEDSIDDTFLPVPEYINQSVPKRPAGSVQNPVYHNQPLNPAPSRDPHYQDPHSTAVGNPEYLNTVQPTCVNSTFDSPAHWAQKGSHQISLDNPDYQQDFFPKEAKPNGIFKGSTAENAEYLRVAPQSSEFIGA

Structure (SMILES)	IC50 (A431 (EGFR-WT)) [nM]	GI50 [1] [nM]	GI50 [2] [nM]
C=CC(=O)Nc1cc(Nc2ncc(C(=O)OC(C)C)c(N3CC(C)(C)c4cc(F)c(F)cc43)n2)c(OC)cc1N(C)CCN(C)C [Example 91, isopropyl 2-((5-acrylamido-4-((2-(dimethylami-no)ethyl)(methyl)amino)-2-methoxy-phenyl)amino)-4-(5,6-difluoro-3,3-dimethylindolin-1-yl)pyrimidine-5-carboxylate]	1080	37.5	32.2
C=CC(=O)Nc1cc(Nc2ncc(C(=O)OC(C)C)c(N3CC(C)(C)c4ncccc43)n2)c(OC)cc1N(C)CCN(C)C [Example 2, isopropyl 2-((5-acrylamido-4-((2-(dimethylami-no)ethyl)(methyl)amino)-2-methoxy-phenyl)amino)-4-(3,3-dimethyl-2,3-dihydro-1H-pyrrolo[3,2-b]pyridin-1-yl)pyrimidine-5-carboxylate]	479	26.8	35
C=CC(=O)Nc1cc(Nc2ncc(C(=O)OC(C)C)c(N3CC4(CCC4)c4nc(C)ccc43)n2)c(OC)cc1N(C)CCN(C)C [Example 5, isopropyl 2-((5-acrylamido-4-((2-(dimethylami-no)ethyl)(methyl)amino)-2-methoxy-phenyl)amino)-4-(5′-methylspiro(cyclo-butane-1,3′-pyrrolo[3,2-b]pyridin)-1′(2′H)-yl)pyrimidine-5-carboxylate]	516	15.8	30.4
[2H]C1([2H])N(c2nc(Nc3cc(NC(=O)C=C)c(N4CC(N(C)C)C4)cc3OC)ncc2C(=O)OC(C)C)c2ccc(C)nc2C1(C)C [Example 50, isopropyl 2-((5-acrylamido-4-(3-(dimethylami-no)azetidin-1-yl)-2-methoxy-phenyl)amino)-4-(3,3,5-trimethyl-2,3-dihydro-1H-pyrrolo[3,2-b]pyridin-1-yl-2,2-d2)pyrimidine-5-carboxylate]	813	36.7	27.9
C=CC(=O)Nc1cc(Nc2ncc(C(=O)OC(C)C)c(N3CC(C)(C)c4nc(C)ccc43)n2)c(OC)nc1N(C)CCN(C)C [Example 29, isopropyl 2-((5-acrylamido-6-((2-(dimethylami-no)ethyl)(methyl)amino)-2-methoxy-pyridin-3-yl)amino)-4-(3,3,5-trimethyl-2,3-dihydro-1H-pyrrolo[3,2-b]pyridin-1-yl)pyrimidine-5-carboxylate]	282	13.3	16
C=CC(=O)Nc1cc(Nc2ncc(C(=O)OC(C)C)c(N3CC(C)(C)c4nc(C)ccc43)n2)c(OC)cc1N1CC(N(C)C)C1 [Example 40, isopropyl 2-((5-acrylamido-4-(3-(dimethylami-no)azetidin-1-yl)-2-methoxyphenyl)ami-no)-4-(3,3,5-trimethyl-2,3-dihydro-1H-pyrrolo[3,2-b]pyridin-1-yl)pyrimidine-5-carboxylate]	295	33.9	44.2
C=CC(=O)Nc1cc(Nc2ncc(C(=O)OC(C)C)c(N3CC4(CCC4)c4ncccc43)n2)c(OC)cc1N(C)CCN(C)C [Example 7, isopropyl 2-((5-acrylamido-4-((2-(dimethylami-no)ethyl)(methyl)amino)-2-methoxy-phenyl)amino)-4-(spiro(cyclobutane-1,3′-pyrrolo[3,2-b]pyridin)-1′(2′H)-yl)pyrimidine-5-carboxylate]	735	18.8	29.9

Stronger by IC50 (A431 (EGFR-WT)), values ahead:

IC50 (A431 (EGFR-WT)) [nM]	GI50 [1] [nM]	GI50 [2] [nM]	Structure (SMILES)
65.5	14.8	30.4	[2H]C([2H])([2H])N(CCN(C)C)c1cc(OC)c(Nc2ncc(C(=O)OC(C)C)c(N3c4ccc(C)nc4C(C)(C)C3([2H])[2H])n2)cc1NC(=O)C=C [Example 71, isopropyl 2-((5-acrylamido-4-((2-(dimethylami-no)ethyl)(methyl-d3)amino)-2-methoxy-phenyl)amino)-4-(3,3,5-trimethyl-2,3-dihydro-1H-pyrrolo[3,2-b]pyridin-1-yl-2,2-d2)pyrimidine-5-carboxylate]
222	34.2	53.8	C=CC(=O)Nc1cc(Nc2ncc(C(=O)OC(C)C)c(N3CC4(CC4)c4nc(C)ccc43)n2)c(OC)cc1N(C)CCNC [Example 25, isopropyl 2-((5-acrylamido-2-methoxy-4-(methyl(2-(methylamino)ethyl)ami-no)phenyl)amino)-4-(5′-methyl-spiro(cyclopropane-1,3′-pyrrolo[3,2-b]pyridin)-1′(2′H)-yl)pyrimidine-5-carboxylate]
150	18.4	18.4	C=CC(=O)Nc1cc(Nc2ncc(C(=O)OC(C)C)c(N3CC(C)(C)c4nc(C)ccc43)n2)c(OC)nc1N1C[C@@H](F)C[C@@H]1CN(C)C [Example 59, isopropyl 2-((5-acrylamido-6-((2R,4S)-2-((dimethylamino)methyl)-4-fluoro-pyrrolidin-1-yl)-2-methoxypyridin-3-yl)amino)-4-(3,3,5-trimethyl-2,3-dihydro-1H-pyrrolo[3,2-b]pyridin-1-yl)pyrimidine-5-carboxylate]
183	11.8	13.9	C=CC(=O)Nc1cc(Nc2ncc(C(=O)OC(C)C)c(N3CC(C)(C)c4nc(C)ccc43)n2)c(OC)nc1N1CCC[C@@H]1CN(C)C [Example 31, isopropyl (R)-2-((5-acrylamido-6-(2-((dimethyl-amino)methyl)pyrrolidin-1-yl)-2-meth-oxypyridin-3-yl)amino)-4-(3,3,5-tri-methyl-2,3-dihydro-1H-pyrrolo[3,2-b]pyridin-1-yl)pyrimidine-5-carboxylate]
72	12.3	36.4	[2H]C([2H])([2H])N(CCN(C([2H])([2H])[2H])C([2H])([2H])[2H])c1cc(OC)c(Nc2ncc(C(=O)OC(C)C)c(N3c4ccc(C)nc4C(C)(C)C3([2H])[2H])n2)cc1NC(=O)C=C [Example 78, isopropyl 2-((5-acrylamido-4-((2-(bis(methyl-d3)amino)ethyl)(methyl-d3)amino)-2-methoxyphenyl)amino)-4-(3,3,5-tri-methyl-2,3-dihydro-1H-pyrrolo[3,2-b]pyridin-1-yl-2,2-d2)pyrimidine-5-carboxylate]
102	11	18.7	C=CC(=O)Nc1cc(Nc2ncc(C(=O)OC(C)C)c(N3CC(C)(C)c4nc(-c5cnn(C)c5)ccc43)n2)c(OC)cc1N(C)CCN(C)C [Example 8, isopropyl 2-((5-acrylamido-4-((2-(dimethylami-no)ethyl)(methyl)amino)-2-methoxy-phenyl)amino)-4-(3,3-dimethyl-5-(1-methyl-1H-pyrazol-4-yl)-2,3-dihydro-1H-pyrrolo[3,2-b]pyridin-1-yl)pyrimidine-5-carboxylate]
39.7	8.8	12.3	C=CC(=O)Nc1cc(Nc2ncc(C(=O)OC(C)C)c(N3CC4(CC4)c4nc(C)ccc43)n2)c(OC)cc1N1C[C@@H](F)C[C@@H]1CN(C)C [Example 64, isopropyl 2-((5-acrylamido-4-((2R,4S)-2-((di-methylamino)methyl)-4-fluoro-pyrrolidin-1-yl)-2-methoxy-phenyl)amino)-4-(5′-methyl-spiro(cyclopropane-1,3′-pyrrolo[3,2-b]pyridin)-1′(2′H)-yl)pyrimidine-5-carboxylate]
